Drawing on patent US6335327B1, “Benzoheterocyclic derivatives” (Otsuka Pharmaceuticals Co., Ltd., priority 1994, dated 2002), this text covers melting point for nine compounds.

In turn, `COc1cc(NCCOc2ccccc2C)ccc1C(=O)N1CCCC(CC(=O)N2CCN(C)CC2)c2cc(Cl)ccc21` (stereo not drawn) [Example 139, 7-chloro-5-[(4-methyl-1-piperazinyl)carbonylmethyl]-1-[2-methoxy-4-[2-(2-methylphenoxy)ethylamino]benzoyl}-2,3,4,5-tetrahydro-1H-benzazepine] registered a melting point of 160 to 161 °C. The value for `COc1cc(NCc2ccccc2C)ccc1C(=O)N1CCCC(CC(=O)N2CCN(C)CC2)c2cc(Cl)ccc21` (stereo not drawn) [Example 142, 7-chloro-5-[(4-methyl-1-piperazinyl)carbonylmethyl]-1-[2-methoxy-4-(2-methylbenzylamino)benzoyl]-2,3,4,5-tetrahydro-1H-benzazepine] was 153 to 154.5 °C; that for `COc1cc(C(=O)N2CCCCc3cc(Cl)ccc32)ccc1NC(=O)N(C)C` [Example 146, 7-chloro-1-(3-methoxy-4-dimethylaminocarbonylaminobenzoyl)-2,3,4,5-tetrahydro-1H-benzazepine] was 230 to 232 °C; that for `O=C(O)CC1CCCN(C(=O)c2ccc(NC(=O)COc3ccccc3)cc2)c2ccccc21` (stereo not drawn) [Example 721, 5-carboxymethyl-1-[4-(2-phenoxyacetylamino)benzoyl]-2,3,4,5-tetrahydro-1H-benzazepine] was 102 to 106 °C. The value for `Cc1cc(NC(=O)CO)ccc1C(=O)N1CCCCc2cc(Cl)ccc21` [Example 722, 7-chloro-1-[2-methyl-4-(2-hydroxyacetylamino)benzoyl]-2,3,4,5-tetrahydro-1H-benzazepine] was 194 to 195 °C; that for `O=C(Nc1ccc(C(=O)N2CCCCc3ccccc32)c(Cl)c1)OCc1ccncc1` [Example 725, 1-{4-[(4-pyridyl)methoxycarbonylamino]-2-chlorobenzoyl}-2,3,4,5-tetrahydro-1H-benzazepine] was 181 to 184 °C; that for `O=C(Nc1ccc(C(=O)N2CCCCc3ccccc32)c(Cl)c1)OCCOc1ccccc1` [Example 726, 1-[4-(2-phenoxyethoxycarbonylamino)-2-chlorobenzoyl]-2,3,4,5-tetrahydro-1H-benzazepine] was 144 to 146 °C. The value for `CN1CCN(c2ccc(C(=O)N3CCCCc4ccccc43)c(Cl)c2)CC1` [Example 728, 1-[4-(4-methyl-1-piperazinyl)-2-chlorobenzoyl]-2,3,4,5-tetrahydro-1H-benzazepine] was 138 to 140 °C; that for `O=C(c1ccc(-c2ccccc2)cc1Cl)N1CCCC(Cc2nnn[nH]2)c2ccccc21` (stereo not drawn) [Example 730, 5-(5-tetrazolyl)methyl-1-(4-phenyl-2-chlorobenzoyl)-2,3,4,5-tetrahydro-1H-benzazepine] was 191 to 194 °C.

The term melting point denotes the temperature of the solid-liquid transition.
